# Assay results from patent US10774051B2, “6-membered heterocyclic derivatives and pharmaceutical composition comprising the same” (Shionogi & Co., Ltd., priority 2015, dated 2020).
# Where two headings read alike, the source gives them in different places.
# Molecular target: human P2X7 receptor (Homo sapiens, UniProt Q99572, R270H/Y155H)
# Test: Evaluation of human P2X7 receptor inhibitory activity (Yo-Pro uptake, BzATP stimulation, FLIPR TETRA)
# Assay type: cell-based
# Method in brief: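 1321N1 cells stably expressing human P2X7 (T606C/G952A SNP variant), in HBSS buffer pH 7.4-7.5 with Yo-Pro, stimulated with BzATP; compound added 8 min after agonist. Fluorescence followed for 20 min on FLIPR; max-minus-min change gave % inhibition, IC50 by logistic fit.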
# [1] = antagonistic activity for the human P2X7 receptor, read-out: IC50
# [2] = 1321N1 cells stably expressing human P2X7 receptor, BzATP stimulation, Yo-Pro uptake, read-out: IC50 (antagonistic activity for the human P2X7 receptor)
Structure (SMILES),IC50 [1] [nM],IC50 [2] [nM]
CCOc1cn(Cc2ccc(F)c(Cl)c2)c(Nc2cc(C)c(OC)cc2C)nc1=O [Compound I-0714],< 10,–
COc1cc(Nc2nc(=O)c(OC)cn2Cc2cc(F)c(F)c(F)c2)c(C)cc1C [Compound I-0715],< 10,–
CCOc1cn(Cc2ccc(F)c(Cl)c2)c(Nc2cc(C)cc(OC)c2C)nc1=O [Compound I-0716],< 10,–
CCOc1cn(Cc2ccccc2)c(Nc2cc(C)cc(OC)c2C)nc1=O [Compound I-0717],< 10,–
COc1cc(C)c(Nc2nc(=O)c(OC)cn2Cc2ccccc2)cc1F [Compound I-0718],10 to 100,–
COc1cc(C)c(Nc2nc(=O)c(OC)cn2Cc2ccc(F)c(Cl)c2)cc1F [Compound I-0719],< 10,–
COc1cn(Cc2ccccc2)c(Nc2cc3c(cc2C)OCO3)nc1=O [Compound I-0720],10 to 100,–
COc1cc(C)c(Nc2nc(=O)c(OC)cn2Cc2cc(F)cc(F)c2)cc1F [Compound I-0721],< 10,–
C=C(C)c1ccc(C)c(Nc2nc(=O)c(OC)cn2Cc2ccccc2)c1 [Compound I-0722],10 to 100,–
C=C(C)c1ccc(C)c(Nc2nc(=O)c(OC)cn2Cc2ccc(F)c(Cl)c2)c1 [Compound I-0723],10 to 100,–
COc1cn(Cc2ccccc2)c(Nc2c(C)cccc2C)nc1=O [Compound I-0724],100 to 500,–
CCOc1ccc(Nc2nc(=O)c(OC)cn2Cc2cc(F)c(F)c(F)c2)c(C)c1 [Compound I-0725],< 10,–
COc1cn(Cc2cc(F)cc(F)c2)c(Nc2cc3c(cc2C)OC(F)(F)O3)nc1=O [Compound I-0726],100 to 500,–
COc1cn(Cc2ccc(F)c(Cl)c2)c(Nc2cc3c(cc2C)OC(F)(F)O3)nc1=O [Compound I-0727],100 to 500,–
CCc1cc2c(cc1Nc1nc(=O)c(OC)cn1Cc1ccccc1)OC(F)(F)O2 [Compound I-0728],100 to 500,–
CCc1cc2c(cc1Nc1nc(=O)c(OC)cn1Cc1cc(F)cc(F)c1)OC(F)(F)O2 [Compound I-0729],100 to 500,–
CCc1cc2c(cc1Nc1nc(=O)c(OC)cn1Cc1ccc(F)c(Cl)c1)OC(F)(F)O2 [Compound I-0730],10 to 100,–
COc1cn(Cc2ccccc2)c(Nc2cc(C(C)(C)O)ccc2C)nc1=O [Compound I-0731],10 to 100,–
COc1cn(Cc2ccc(F)c(F)c2)c(Nc2cc(C(C)(C)O)ccc2C)nc1=O [Compound I-0732],10 to 100,–
COc1cn(Cc2ccc(F)c(Cl)c2)c(Nc2cc(-c3ccnn3C)ccc2C)nc1=O [Compound I-0733],10 to 100,–

Structure (SMILES),IC50 [1] [nM],IC50 [2] [nM]
COc1cn(Cc2cc(F)cc(Cl)c2)c(Nc2cc(-c3ccnn3C)ccc2C)nc1=O [Compound I-0734],10 to 100,–
COc1cn(Cc2ccc(F)c(Cl)c2)c(Nc2cc(N3CCOCC3)ccc2C)nc1=O [Compound I-0735],10 to 100,–
COc1cn(Cc2ccc(F)c(F)c2)c(Nc2cc(N3CCOCC3)ccc2C)nc1=O [Compound I-0736],10 to 100,–
COc1cn(Cc2cc(F)cc(Cl)c2)c(Nc2cc(N3CCOCC3)ccc2C)nc1=O [Compound I-0737],10 to 100,–
COc1cn(Cc2ccsc2)c(Nc2cc(C)c(C)cc2C)nc1=O [Compound I-0738],–,3
COc1ccc(Nc2nc(=O)c(OC)cn2Cc2ccc(F)cc2)c(C)c1 [Compound I-0739],10 to 100,–
COc1cn(Cc2ccccc2)c(Nc2cc(N3CCOCC3)ccc2C)nc1=O [Compound I-0740],100 to 500,–
COc1cn(Cc2cc(F)cc(F)c2)c(Nc2cc3c(cc2C)OCO3)nc1=O [Compound I-0741],10 to 100,–
COc1cn(Cc2ccc(F)c(Cl)c2)c(Nc2cc3c(cc2C)OCO3)nc1=O [Compound I-0742],–,16
CCc1cc2c(cc1Nc1nc(=O)c(OC)cn1Cc1cc(F)cc(F)c1)OCO2 [Compound I-0743],10 to 100,–
COc1cn(Cc2ccccc2)c(Nc2cc3nc(C)sc3cc2C)nc1=O [Compound I-0744],–,180
COc1cn(Cc2cc(F)cc(F)c2)c(Nc2cc3nc(C)sc3cc2C)nc1=O [Compound I-0745],100 to 500,–
COc1cn(Cc2ccc(F)c(Cl)c2)c(Nc2cc3nc(C)sc3cc2C)nc1=O [Compound I-0746],10 to 100,–
C=C(C)c1ccc(C)c(Nc2nc(=O)c(OC)cn2Cc2ccc(F)c(F)c2)c1 [Compound I-0747],10 to 100,–
C=C(C)c1ccc(C)c(Nc2nc(=O)c(OC)cn2Cc2cc(F)cc(Cl)c2)c1 [Compound I-0748],10 to 100,–
C=C(C)c1ccc(C)c(Nc2nc(=O)c(OC)cn2Cc2cc(F)cc(F)c2)c1 [Compound I-0749],10 to 100,–
COc1cn(Cc2ccccc2)c(Nc2cc(-c3cscn3)ccc2C)nc1=O [Compound I-0750],10 to 100,–
COc1cn(Cc2ccc(F)c(F)c2)c(Nc2cc(-c3cscn3)ccc2C)nc1=O [Compound I-0751],< 10,–
COc1cn(Cc2cc(F)cc(Cl)c2)c(Nc2cc(-c3cscn3)ccc2C)nc1=O [Compound I-0752],10 to 100,–
COc1cn(Cc2cc(F)cc(F)c2)c(Nc2cc(-c3cscn3)ccc2C)nc1=O [Compound I-0753],< 10,–

Structure (SMILES),IC50 [1] [nM],IC50 [2] [nM]
COc1cn(Cc2ccccc2)c(Nc2cc(S(C)(=O)=O)cc(C)c2C)nc1=O [Compound I-0754],10 to 100,–
COc1cn(Cc2ccc(F)c(Cl)c2)c(Nc2cc(S(C)(=O)=O)cc(C)c2C)nc1=O [Compound I-0755],–,12
COc1cn(Cc2ccc(F)c(F)c2)c(Nc2cc(S(C)(=O)=O)cc(C)c2C)nc1=O [Compound I-0756],10 to 100,–
COc1cn(Cc2cc(F)cc(Cl)c2)c(Nc2cc(S(C)(=O)=O)cc(C)c2C)nc1=O [Compound I-0757],10 to 100,–
COc1cn(Cc2cc(F)cc(F)c2)c(Nc2cc(S(C)(=O)=O)cc(C)c2C)nc1=O [Compound I-0758],10 to 100,–
CCOc1cn(Cc2ccccc2)c(Nc2cc(OC)c(OC)cc2C)nc1=O [Compound I-0759],10 to 100,–
COc1cn(Cc2cc(F)c(F)c(F)c2)c(Nc2cc3nc(C)sc3cc2C)nc1=O [Compound I-0760],10 to 100,–
COc1cn(Cc2ccccc2)c(Nc2cccc(C)c2F)nc1=O [Compound I-0761],100 to 500,–
COc1cn(Cc2ccccc2)c(Nc2cccc(C)c2F)nc1=O [Compound I-0762],100 to 500,–
COc1cc(C)c(Nc2nc(=O)c(OC)cn2Cc2cc(F)c(F)c(F)c2)cc1Cl [Compound I-0763],< 10,–
COc1cn(Cc2ccc(F)c(F)c2)c(Nc2cc(-c3cccnc3)ccc2C)nc1=O [Compound I-0764],< 10,–
COc1cn(Cc2cc(F)cc(Cl)c2)c(Nc2cc(-c3cccnc3)ccc2C)nc1=O [Compound I-0765],10 to 100,–
COc1cn(Cc2cc(F)cc(F)c2)c(Nc2cc(-c3cccnc3)ccc2C)nc1=O [Compound I-0766],< 10,–
COc1cn(Cc2ccc(F)c(F)c2)c(Nc2cc(-c3ccc(C)o3)ccc2C)nc1=O [Compound I-0767],10 to 100,–
COc1cn(Cc2cc(F)cc(Cl)c2)c(Nc2cc(-c3ccc(C)o3)ccc2C)nc1=O [Compound I-0768],10 to 100,–
COc1cn(Cc2cc(F)cc(F)c2)c(Nc2cc(-c3ccc(C)o3)ccc2C)nc1=O [Compound I-0769],10 to 100,–
COc1cn(Cc2ccccc2)c(Nc2cc3ncccc3cc2C)nc1=O [Compound I-0770],100 to 500,–
COc1cn(Cc2ccc(F)c(Cl)c2)c(Nc2cc3ncccc3cc2C)nc1=O [Compound I-0771],–,43
COc1cn(Cc2ccc(F)c(F)c2)c(Nc2cc3ncccc3cc2C)nc1=O [Compound I-0772],10 to 100,–
